Key:
Type in all cases: biochemical
HDAC 1 = HDAC 1 (Homo sapiens, UniProt Q13547); assay: in vitro HDAC inhibition, HDAC isoform 1; conditions: Class 1, in vitro; read-out: HDAC inhibition as IC50, HDAC Isoform 1
HDAC 2 = HDAC 2 (Homo sapiens, UniProt Q92769); assay: in vitro HDAC inhibition, HDAC isoform 2; conditions: Class 1, in vitro; read-out: HDAC inhibition as IC50, HDAC Isoform 2
HDAC 4 = HDAC 4 (Homo sapiens, UniProt P56524); assay: in vitro HDAC inhibition, HDAC isoform 4; conditions: Class 2a, read-out: HDAC inhibition as IC50, HDAC Isoform 4
HDAC 11 = target: T1, HDAC 11 (Homo sapiens, UniProt Q96DB2); assay: in vitro HDAC inhibition, HDAC isoform 11; conditions: Class 4, in vitro; read-out: HDAC inhibition as IC50, HDAC Isoform 11
T1 sequence (Q96DB2 1-347): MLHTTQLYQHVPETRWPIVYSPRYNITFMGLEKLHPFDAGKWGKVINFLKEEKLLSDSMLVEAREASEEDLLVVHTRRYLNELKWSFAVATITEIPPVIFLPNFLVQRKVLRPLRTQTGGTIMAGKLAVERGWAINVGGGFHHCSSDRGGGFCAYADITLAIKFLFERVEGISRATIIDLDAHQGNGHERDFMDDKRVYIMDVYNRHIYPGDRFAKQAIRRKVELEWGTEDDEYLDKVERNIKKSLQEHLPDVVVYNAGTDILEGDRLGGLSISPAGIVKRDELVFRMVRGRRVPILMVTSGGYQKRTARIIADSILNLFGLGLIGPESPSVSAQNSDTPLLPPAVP

HDAC 6 = target: T2, HDAC 6 (Homo sapiens, UniProt Q9UBN7); assay: in vitro HDAC inhibition, HDAC isoform 6; conditions: Class 2b, read-out: HDAC inhibition as IC50, HDAC Isoform 6
T2 sequence (Q9UBN7 1-1215): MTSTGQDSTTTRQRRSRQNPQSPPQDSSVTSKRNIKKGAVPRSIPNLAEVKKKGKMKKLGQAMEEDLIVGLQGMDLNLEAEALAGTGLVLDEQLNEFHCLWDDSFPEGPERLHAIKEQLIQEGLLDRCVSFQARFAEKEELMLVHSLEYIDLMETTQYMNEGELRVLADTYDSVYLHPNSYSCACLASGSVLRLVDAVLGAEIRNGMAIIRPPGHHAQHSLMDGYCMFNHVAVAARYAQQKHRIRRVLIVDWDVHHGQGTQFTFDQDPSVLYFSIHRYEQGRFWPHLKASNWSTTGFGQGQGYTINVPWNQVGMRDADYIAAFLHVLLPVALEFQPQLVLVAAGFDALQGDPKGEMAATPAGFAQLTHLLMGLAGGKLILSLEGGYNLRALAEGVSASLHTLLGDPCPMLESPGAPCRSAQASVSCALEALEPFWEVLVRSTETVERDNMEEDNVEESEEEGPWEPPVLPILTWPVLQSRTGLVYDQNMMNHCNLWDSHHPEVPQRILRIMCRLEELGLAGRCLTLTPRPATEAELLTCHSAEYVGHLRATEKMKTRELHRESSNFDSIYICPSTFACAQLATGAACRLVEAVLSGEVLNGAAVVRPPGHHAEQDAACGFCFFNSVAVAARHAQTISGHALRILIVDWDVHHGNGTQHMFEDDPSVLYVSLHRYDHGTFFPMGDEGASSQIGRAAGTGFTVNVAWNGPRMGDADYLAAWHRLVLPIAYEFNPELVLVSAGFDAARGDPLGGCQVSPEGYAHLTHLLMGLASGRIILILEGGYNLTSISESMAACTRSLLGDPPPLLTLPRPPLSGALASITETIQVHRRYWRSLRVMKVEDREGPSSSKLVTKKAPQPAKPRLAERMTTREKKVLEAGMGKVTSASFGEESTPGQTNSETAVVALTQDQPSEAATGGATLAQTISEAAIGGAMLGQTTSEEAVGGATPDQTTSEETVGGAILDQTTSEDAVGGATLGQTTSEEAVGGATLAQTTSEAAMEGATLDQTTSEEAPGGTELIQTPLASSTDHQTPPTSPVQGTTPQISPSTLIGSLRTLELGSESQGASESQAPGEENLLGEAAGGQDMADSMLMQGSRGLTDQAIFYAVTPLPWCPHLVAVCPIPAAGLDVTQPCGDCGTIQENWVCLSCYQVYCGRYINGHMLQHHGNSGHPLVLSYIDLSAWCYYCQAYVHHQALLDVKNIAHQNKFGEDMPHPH

HDAC 5 = HDAC 5 (Homo sapiens, UniProt Q9UQL6); assay: in vitro HDAC inhibition, HDAC isoform 5; conditions: Class 2a, read-out: HDAC inhibition as IC50, HDAC Isoform 5
HDAC 8 = target: T3, HDAC 8 (Homo sapiens, UniProt Q9BY41); assay: in vitro HDAC inhibition, HDAC isoform 8; conditions: Class 1, in vitro; read-out: HDAC inhibition as IC50, HDAC Isoform 8
T3 sequence (Q9BY41 1-377): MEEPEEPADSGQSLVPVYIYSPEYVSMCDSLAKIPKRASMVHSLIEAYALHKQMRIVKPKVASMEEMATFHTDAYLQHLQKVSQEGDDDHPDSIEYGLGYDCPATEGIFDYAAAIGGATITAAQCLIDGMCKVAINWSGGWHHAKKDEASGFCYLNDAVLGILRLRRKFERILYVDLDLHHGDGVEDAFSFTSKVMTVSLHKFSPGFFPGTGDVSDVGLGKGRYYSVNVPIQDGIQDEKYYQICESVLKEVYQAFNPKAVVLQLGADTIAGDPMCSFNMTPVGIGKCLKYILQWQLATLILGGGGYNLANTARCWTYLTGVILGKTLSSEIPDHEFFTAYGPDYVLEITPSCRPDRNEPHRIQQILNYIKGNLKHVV

HDAC 7 = target: T4, HDAC 7 (Homo sapiens, UniProt Q8WUI4); assay: in vitro HDAC inhibition, HDAC isoform 7; conditions: Class 2a, read-out: HDAC inhibition as IC50, HDAC Isoform 7
T4 sequence (Q8WUI4 1-952): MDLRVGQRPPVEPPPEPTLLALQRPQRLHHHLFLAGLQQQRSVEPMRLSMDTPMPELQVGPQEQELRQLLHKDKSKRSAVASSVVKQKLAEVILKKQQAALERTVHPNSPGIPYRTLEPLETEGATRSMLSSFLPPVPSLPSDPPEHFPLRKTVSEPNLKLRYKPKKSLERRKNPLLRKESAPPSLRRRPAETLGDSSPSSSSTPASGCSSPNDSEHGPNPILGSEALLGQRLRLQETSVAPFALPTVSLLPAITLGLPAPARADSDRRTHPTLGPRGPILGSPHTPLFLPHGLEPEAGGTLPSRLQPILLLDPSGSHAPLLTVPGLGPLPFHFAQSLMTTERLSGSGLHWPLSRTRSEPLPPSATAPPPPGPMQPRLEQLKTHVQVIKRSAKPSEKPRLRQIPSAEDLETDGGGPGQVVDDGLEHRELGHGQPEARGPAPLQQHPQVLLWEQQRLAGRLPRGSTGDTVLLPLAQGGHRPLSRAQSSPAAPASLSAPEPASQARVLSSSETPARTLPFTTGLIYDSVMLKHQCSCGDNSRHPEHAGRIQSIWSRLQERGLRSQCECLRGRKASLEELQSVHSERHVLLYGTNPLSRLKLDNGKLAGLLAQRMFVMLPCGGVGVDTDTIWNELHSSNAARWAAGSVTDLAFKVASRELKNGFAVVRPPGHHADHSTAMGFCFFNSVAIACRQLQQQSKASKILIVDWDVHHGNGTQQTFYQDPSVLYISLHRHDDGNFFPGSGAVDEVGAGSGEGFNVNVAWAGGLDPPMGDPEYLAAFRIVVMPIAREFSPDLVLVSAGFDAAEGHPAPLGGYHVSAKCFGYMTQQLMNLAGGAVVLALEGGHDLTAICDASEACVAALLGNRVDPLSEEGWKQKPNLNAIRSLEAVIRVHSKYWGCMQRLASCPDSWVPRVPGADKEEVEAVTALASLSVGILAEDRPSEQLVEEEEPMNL

HDAC 3 = HDAC 3 (Homo sapiens, UniProt O15379); assay: in vitro HDAC inhibition, HDAC isoform 3; conditions: Class 1, in vitro; read-out: HDAC inhibition as IC50, HDAC Isoform 3
HDAC 9 = HDAC 9 (Homo sapiens, UniProt Q9UKV0); assay: in vitro HDAC inhibition, HDAC isoform 9; conditions: Class 2a, read-out: HDAC inhibition as IC50, HDAC Isoform 9

Measured: IC50

Sequence of HDAC 5 (Q9UQL6 whole entry, canonical isoform): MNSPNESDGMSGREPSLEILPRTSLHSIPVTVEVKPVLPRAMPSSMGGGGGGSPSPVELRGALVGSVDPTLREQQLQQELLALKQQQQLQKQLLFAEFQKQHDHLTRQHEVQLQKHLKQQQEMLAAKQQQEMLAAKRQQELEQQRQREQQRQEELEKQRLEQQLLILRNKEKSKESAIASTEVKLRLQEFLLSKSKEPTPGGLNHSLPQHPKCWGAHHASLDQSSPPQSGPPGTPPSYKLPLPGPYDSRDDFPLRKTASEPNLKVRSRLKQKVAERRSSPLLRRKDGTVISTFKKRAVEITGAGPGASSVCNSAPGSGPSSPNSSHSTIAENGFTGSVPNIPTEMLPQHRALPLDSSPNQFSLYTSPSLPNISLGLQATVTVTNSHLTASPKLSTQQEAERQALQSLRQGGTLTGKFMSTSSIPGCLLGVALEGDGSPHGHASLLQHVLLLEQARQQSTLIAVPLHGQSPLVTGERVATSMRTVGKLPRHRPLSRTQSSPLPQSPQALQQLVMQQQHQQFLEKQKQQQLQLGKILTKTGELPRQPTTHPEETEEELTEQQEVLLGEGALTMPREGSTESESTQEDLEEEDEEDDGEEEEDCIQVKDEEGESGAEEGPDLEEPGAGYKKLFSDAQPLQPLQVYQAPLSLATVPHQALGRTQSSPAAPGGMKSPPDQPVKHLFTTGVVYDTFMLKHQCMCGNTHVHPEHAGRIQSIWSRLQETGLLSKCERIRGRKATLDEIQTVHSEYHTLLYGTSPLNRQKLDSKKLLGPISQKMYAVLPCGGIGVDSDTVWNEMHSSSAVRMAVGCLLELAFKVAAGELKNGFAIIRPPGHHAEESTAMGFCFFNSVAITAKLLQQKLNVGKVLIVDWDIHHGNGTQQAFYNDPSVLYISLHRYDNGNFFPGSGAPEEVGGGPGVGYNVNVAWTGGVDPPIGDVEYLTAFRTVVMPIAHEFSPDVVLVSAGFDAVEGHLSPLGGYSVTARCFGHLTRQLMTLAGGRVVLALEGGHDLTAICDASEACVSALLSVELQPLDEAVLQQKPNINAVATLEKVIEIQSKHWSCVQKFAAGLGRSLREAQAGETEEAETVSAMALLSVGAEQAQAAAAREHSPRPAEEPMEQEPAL
Sequence of HDAC 4 (P56524 whole entry, canonical isoform): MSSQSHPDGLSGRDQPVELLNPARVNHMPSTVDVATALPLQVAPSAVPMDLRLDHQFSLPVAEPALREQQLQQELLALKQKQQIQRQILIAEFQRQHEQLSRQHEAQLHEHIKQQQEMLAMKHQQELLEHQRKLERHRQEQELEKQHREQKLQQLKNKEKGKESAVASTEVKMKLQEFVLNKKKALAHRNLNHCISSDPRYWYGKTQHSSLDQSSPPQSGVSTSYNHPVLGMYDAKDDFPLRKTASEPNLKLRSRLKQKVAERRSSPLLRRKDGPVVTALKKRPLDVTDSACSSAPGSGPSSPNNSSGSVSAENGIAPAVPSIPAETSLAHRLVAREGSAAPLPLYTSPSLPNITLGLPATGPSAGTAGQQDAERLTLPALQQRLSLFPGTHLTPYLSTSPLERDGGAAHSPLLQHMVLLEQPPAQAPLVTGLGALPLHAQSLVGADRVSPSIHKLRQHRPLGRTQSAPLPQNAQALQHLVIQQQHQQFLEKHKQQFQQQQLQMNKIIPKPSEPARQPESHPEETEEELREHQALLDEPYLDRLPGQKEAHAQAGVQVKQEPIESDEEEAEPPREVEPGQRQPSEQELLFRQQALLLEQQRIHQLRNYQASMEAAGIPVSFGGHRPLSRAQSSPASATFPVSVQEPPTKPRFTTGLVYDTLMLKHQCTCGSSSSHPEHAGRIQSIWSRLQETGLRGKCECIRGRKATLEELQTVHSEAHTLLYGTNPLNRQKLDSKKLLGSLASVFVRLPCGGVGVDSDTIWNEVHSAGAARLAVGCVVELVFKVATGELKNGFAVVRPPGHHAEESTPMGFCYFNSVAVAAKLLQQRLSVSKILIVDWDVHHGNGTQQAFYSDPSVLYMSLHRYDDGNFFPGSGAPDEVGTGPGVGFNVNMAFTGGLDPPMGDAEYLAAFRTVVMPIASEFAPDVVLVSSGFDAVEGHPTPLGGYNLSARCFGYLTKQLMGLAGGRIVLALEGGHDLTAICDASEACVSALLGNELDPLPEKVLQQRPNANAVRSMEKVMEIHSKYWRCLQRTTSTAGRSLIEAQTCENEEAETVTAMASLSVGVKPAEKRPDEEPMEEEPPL
Sequence of HDAC 1 (Q13547 whole entry, canonical isoform): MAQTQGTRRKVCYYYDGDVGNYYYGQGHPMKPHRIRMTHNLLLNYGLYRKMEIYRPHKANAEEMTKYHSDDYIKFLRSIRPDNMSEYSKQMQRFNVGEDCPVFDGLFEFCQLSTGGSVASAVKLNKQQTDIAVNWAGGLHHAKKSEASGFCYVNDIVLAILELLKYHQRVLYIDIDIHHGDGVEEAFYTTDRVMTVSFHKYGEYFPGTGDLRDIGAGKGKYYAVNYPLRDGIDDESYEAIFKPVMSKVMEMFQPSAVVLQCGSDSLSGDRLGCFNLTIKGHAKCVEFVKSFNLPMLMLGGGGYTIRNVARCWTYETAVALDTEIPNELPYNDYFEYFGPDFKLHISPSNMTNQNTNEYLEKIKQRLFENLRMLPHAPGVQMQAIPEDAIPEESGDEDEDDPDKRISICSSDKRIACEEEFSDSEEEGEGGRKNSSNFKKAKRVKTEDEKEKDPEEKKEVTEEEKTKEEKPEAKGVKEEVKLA
Sequence of HDAC 9 (Q9UKV0 whole entry, canonical isoform): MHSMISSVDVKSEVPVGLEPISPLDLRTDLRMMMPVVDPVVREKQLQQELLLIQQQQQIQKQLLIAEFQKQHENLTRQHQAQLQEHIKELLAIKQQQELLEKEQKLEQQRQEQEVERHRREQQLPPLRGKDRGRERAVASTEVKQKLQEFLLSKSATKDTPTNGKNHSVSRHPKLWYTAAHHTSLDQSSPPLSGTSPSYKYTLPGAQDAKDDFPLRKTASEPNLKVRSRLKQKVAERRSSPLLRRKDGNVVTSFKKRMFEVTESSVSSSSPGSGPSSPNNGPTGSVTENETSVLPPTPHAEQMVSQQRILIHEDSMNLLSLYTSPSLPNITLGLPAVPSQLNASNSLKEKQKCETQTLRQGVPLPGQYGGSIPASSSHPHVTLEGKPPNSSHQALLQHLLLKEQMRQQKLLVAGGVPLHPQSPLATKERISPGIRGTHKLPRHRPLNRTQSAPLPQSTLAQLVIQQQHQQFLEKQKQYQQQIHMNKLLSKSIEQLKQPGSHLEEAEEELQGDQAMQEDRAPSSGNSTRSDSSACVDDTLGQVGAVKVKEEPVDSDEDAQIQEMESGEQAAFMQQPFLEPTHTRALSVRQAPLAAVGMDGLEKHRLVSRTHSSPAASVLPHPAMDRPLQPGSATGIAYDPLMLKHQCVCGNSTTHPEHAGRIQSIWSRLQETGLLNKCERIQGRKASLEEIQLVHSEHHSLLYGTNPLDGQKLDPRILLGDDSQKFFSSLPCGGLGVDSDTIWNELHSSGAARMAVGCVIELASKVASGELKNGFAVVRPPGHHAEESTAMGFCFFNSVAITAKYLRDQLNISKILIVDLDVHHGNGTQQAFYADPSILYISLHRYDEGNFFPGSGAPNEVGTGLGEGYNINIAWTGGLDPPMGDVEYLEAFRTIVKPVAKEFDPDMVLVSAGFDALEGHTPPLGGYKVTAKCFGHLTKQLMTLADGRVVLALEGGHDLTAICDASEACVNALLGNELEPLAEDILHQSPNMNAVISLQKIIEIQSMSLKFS
Sequence of HDAC 2 (Q92769 whole entry, canonical isoform): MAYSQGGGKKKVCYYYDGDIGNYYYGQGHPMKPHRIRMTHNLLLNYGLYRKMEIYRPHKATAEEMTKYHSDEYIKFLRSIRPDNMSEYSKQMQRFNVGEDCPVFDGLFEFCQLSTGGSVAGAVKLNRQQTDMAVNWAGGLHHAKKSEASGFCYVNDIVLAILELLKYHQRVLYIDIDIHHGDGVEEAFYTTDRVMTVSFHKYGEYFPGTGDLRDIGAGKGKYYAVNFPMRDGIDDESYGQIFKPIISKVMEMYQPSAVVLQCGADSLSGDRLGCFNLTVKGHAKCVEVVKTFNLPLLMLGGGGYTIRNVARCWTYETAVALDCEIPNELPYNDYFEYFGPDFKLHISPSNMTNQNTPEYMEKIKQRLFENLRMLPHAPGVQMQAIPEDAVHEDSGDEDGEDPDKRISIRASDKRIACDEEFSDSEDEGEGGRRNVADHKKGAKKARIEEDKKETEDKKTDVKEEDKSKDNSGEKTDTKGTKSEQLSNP
Sequence of HDAC 3 (O15379 whole entry, canonical isoform): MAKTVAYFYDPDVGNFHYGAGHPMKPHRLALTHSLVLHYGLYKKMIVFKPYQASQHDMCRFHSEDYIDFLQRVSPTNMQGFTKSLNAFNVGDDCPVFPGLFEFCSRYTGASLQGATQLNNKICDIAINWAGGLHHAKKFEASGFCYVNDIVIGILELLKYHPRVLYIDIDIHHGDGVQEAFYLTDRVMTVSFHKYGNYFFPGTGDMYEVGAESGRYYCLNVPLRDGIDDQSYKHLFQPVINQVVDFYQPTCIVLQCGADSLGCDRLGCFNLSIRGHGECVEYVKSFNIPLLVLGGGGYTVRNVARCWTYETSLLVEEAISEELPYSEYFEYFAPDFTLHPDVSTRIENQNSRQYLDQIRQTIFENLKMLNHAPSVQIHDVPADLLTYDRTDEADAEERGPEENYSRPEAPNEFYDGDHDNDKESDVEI
Sequence of HDAC 3 (Q9Y618 395-489 partner limits assumed): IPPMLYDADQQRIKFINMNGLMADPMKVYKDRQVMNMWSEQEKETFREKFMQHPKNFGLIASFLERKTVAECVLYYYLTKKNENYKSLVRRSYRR

CC(C)[C@@H]1NC(=O)[C@]2(C)CSC(=N2)c2csc(n2)CNC(=O)C[C@@H](/C=C/CCO)NC1=O
> 10 mM: all assays above
